Results as given in paper PMC11149339, “Necessity for higher teicoplanin doses in older adults: a multicenter prospective observational study in China” (BMC Geriatrics, 2024).

Test: Therapeutic drug monitoring of teicoplanin concentration after drug withdrawal, LC-MS/MS
Format: in vivo, human
Conditions: for TDM Withdraw 8-14d (teicoplanin concentration): 8–14 days after last dose (withdrawal); for TDM Withdraw 8-14d (teicoplanin concentration) / TDM Withdraw 3d (teicoplanin concentration) / TDM Withdraw ≤ 7d (teicoplanin concentration) / TDM Withdraw ≥ 15d (teicoplanin concentration): median [IQR], LC-MS/MS; for TDM Withdraw 3d (teicoplanin concentration): 3 days after last dose (withdrawal); for TDM Withdraw ≤ 7d (teicoplanin concentration): ≤ 7 days after last dose (withdrawal); for TDM Withdraw ≥ 15d (teicoplanin concentration): ≥ 15 days after last dose (withdrawal); for patients with TDM 10–20 mg/L Withdraw ≥ 15d, N (%) / patients with TDM < 10 mg/L Withdraw ≥ 15d, N (%) / patients with TDM > 20 mg/L Withdraw ≥ 15d, N (%): ≥ 15 days after last dose
Procedure: Teicoplanin (Targocid, Sanofi, Dublin, Ireland) was administered intravenously for 30 min. The prescribed dose regimens were at the discretion of treating physicians, and the recommended regimens were not always followed.
Blood samples (5 mL) were collected from the elbow into ethylenediaminetetraacetic acid-containing Vacutainers® (Becton Dickinson, Milan, Italy) in the morning before teicoplanin administration and after drug withdrawal. Samples were promptly refrigerated and centrifuged at 2500 × g for 10 min before 2 mL of supernatant was preserved at -20 °C for subsequent analysis. Teicoplanin concentrations were determined using liquid chromatography-tandem mass spectrometry. The linear range of the method was 1.0–100.0 mg/L, and the lower limit of quantification was 1.0 mg/L. The relative standard deviation of intra- and inter-batch precision was ≤ 10%.
Teicoplanin concentrations were dynamically monitored. Concentrations at 3, ≤ 7, 8–14, and ≥ 15 days after the first dose and within 2 h of the next scheduled dose were recorded as TDM3d, TDM≤7d, TDM8-14d, and TDM≥15d, respectively. Concentrations at 3, ≤ 7, 8–14, and ≥ 15 days after the last teicoplanin dose (withdrawal) were recorded as TDMw3d, TDMw≤7d, TDMw8-14d, and TDMw≥15d. respectively (Fig. 1a). The Cmin target was ≥ 10 mg/L [6, 7, 23]; a concentration < 10 mg/L was considered suboptimal. Average TDM (TDMa) was defined as the mean Cmin after 3 days of treatment.

[1] = LR-A + MR-A (200 mg once daily, then 200 mg once daily)
[2] = LR-B + MR-A (400 mg once daily, then 200 mg once daily)
[3] = LR-C + MR-B (400 mg at 12-h intervals, then 400 mg once daily)
[4] = 8–14 days after last dose, LR-A + MR-A
[5] = 8–14 days after last dose, LR-B + MR-A
[6] = 8–14 days after last dose, LR-C + MR-B
[7] = LR-B + MR-B (400 mg once daily, then 400 mg once daily)
[8] = LR-C + MR-C (400 mg at 12-h intervals, then 400 mg twice daily)
[9] = 3 days after last dose, LR-A + MR-A
[10] = 3 days after last dose, LR-B + MR-A
[11] = 3 days after last dose, LR-B + MR-B
[12] = 3 days after last dose, LR-C + MR-B
[13] = 3 days after last dose, LR-C + MR-C
[14] = ≤ 7 days after last dose, LR-A + MR-A
[15] = ≤ 7 days after last dose, LR-B + MR-A
[16] = ≤ 7 days after last dose, LR-B + MR-B
[17] = ≤ 7 days after last dose, LR-C + MR-B
[18] = ≤ 7 days after last dose, LR-C + MR-C

Substance: Teicoplanin
- TDM Withdraw 8-14d (teicoplanin concentration) [1]: 5.5[3.8,7.6] mg/L
- TDM Withdraw 8-14d (teicoplanin concentration) [2]: 5.0[3.4,6.6] mg/L
- TDM Withdraw 8-14d (teicoplanin concentration) [3]: 0[0,2.5] mg/L
- TDM Withdraw 8-14d (teicoplanin concentration) (all patients (N = 204)): 5.3[3.3,7.0] mg/L
- patients with TDM 10–20 mg/L Withdraw 8-14d, N (%) [4]: 8(16.0)
- patients with TDM < 10 mg/L Withdraw 8-14d, N (%) [4]: 42(84.0)
- patients with TDM > 20 mg/L Withdraw 8-14d, N (%) [4]: 0
- patients with TDM 10–20 mg/L Withdraw 8-14d, N (%) [5]: 7(14.6)
- patients with TDM < 10 mg/L Withdraw 8-14d, N (%) [5]: 40(83.3)
- patients with TDM > 20 mg/L Withdraw 8-14d, N (%) [5]: 1(2.1)
- patients with TDM 10–20 mg/L Withdraw 8-14d, N (%) [6]: 0
- patients with TDM < 10 mg/L Withdraw 8-14d, N (%) [6]: 4(100)
- patients with TDM > 20 mg/L Withdraw 8-14d, N (%) [6]: 0
- patients having concentrations of 10–20 mg/L, TDMw8-14d (8–14 days after last dose, all patients, 15 patients): 14.6%
- patients having concentrations exceeding 20 mg/L, TDMw8-14d (8–14 days after last dose, all patients, one patient): 1.0%
- patients in whom the target concentration (≥ 10 mg/L) was achieved after withdrawal (8–14 days after withdrawal, all patients): 15.6%
- TDM Withdraw 3d (teicoplanin concentration) [1]: 11.1[8.2,16.5] mg/L
- TDM Withdraw 3d (teicoplanin concentration) [2]: 9.6[7.2,13.8] mg/L
- TDM Withdraw 3d (teicoplanin concentration) [7]: 16.3[9.4,20.2] mg/L
- TDM Withdraw 3d (teicoplanin concentration) [3]: 8.4[5.3,11.7] mg/L
- TDM Withdraw 3d (teicoplanin concentration) [8]: 12.4[7.9,15.6] mg/L
- TDM Withdraw 3d (teicoplanin concentration) (all patients (N = 204)): 10.6[7.9,15.6] mg/L
- patients with TDM 10–20 mg/L Withdraw 3d, N (%) [9]: 7(53.8)
- patients with TDM < 10 mg/L Withdraw 3d, N (%) [9]: 5(38.5)
- patients with TDM > 20 mg/L Withdraw 3d, N (%) [9]: 1(7.7)
- patients with TDM 10–20 mg/L Withdraw 3d, N (%) [10]: 6(42.9)
- patients with TDM < 10 mg/L Withdraw 3d, N (%) [10]: 7(50.0)
- patients with TDM > 20 mg/L Withdraw 3d, N (%) [10]: 1(7.1)
- patients with TDM 10–20 mg/L Withdraw 3d, N (%) [11]: 3(60)
- patients with TDM < 10 mg/L Withdraw 3d, N (%) [11]: 1(20)
- patients with TDM > 20 mg/L Withdraw 3d, N (%) [11]: 1(20)
- patients with TDM 10–20 mg/L Withdraw 3d, N (%) [12]: 2(25.0)
- patients with TDM < 10 mg/L Withdraw 3d, N (%) [12]: 6(75.0)
- patients with TDM > 20 mg/L Withdraw 3d, N (%) [12]: 0
- patients with TDM 10–20 mg/L Withdraw 3d, N (%) [13]: 4(44.4)
- patients with TDM < 10 mg/L Withdraw 3d, N (%) [13]: 4(44.4)
- patients with TDM > 20 mg/L Withdraw 3d, N (%) [13]: 1(11.2)
- patients having concentrations of 10–20 mg/L, TDMw3d (3 days after last dose, all patients, 22 patients): 44.9%
- patients having concentrations exceeding 20 mg/L, TDMw3d (3 days after last dose, all patients, four patients): 8.2%
- patients in whom the target concentration (≥ 10 mg/L) was achieved after withdrawal (3 days after withdrawal, all patients): 53.1%
- TDM Withdraw ≤ 7d (teicoplanin concentration) [1]: 7.9[5.8,11.4] mg/L
- TDM Withdraw ≤ 7d (teicoplanin concentration) [2]: 7.2[5.6,12.0] mg/L
- TDM Withdraw ≤ 7d (teicoplanin concentration) [7]: 12.3[7.7,17.0] mg/L
- TDM Withdraw ≤ 7d (teicoplanin concentration) [3]: 6.3[3.4,9.4] mg/L
- TDM Withdraw ≤ 7d (teicoplanin concentration) [8]: 7.5[3.2,15.6] mg/L
- TDM Withdraw ≤ 7d (teicoplanin concentration) (all patients (N = 204)): 7.4[5.7,12.0] mg/L
- patients with TDM 10–20 mg/L Withdraw ≤ 7d, N (%) [14]: 13(28.3)
- patients with TDM < 10 mg/L Withdraw ≤ 7d, N (%) [14]: 30(65.2)
- patients with TDM > 20 mg/L Withdraw ≤ 7d, N (%) [14]: 3(6.5)
- patients with TDM 10–20 mg/L Withdraw ≤ 7d, N (%) [15]: 14(29.8)
- patients with TDM < 10 mg/L Withdraw ≤ 7d, N (%) [15]: 31(66.0)
- patients with TDM > 20 mg/L Withdraw ≤ 7d, N (%) [15]: 2(4.2)
- patients with TDM 10–20 mg/L Withdraw ≤ 7d, N (%) [16]: 2(40)
- patients with TDM < 10 mg/L Withdraw ≤ 7d, N (%) [16]: 2(40)
- patients with TDM > 20 mg/L Withdraw ≤ 7d, N (%) [16]: 1(20)
- patients with TDM 10–20 mg/L Withdraw ≤ 7d, N (%) [17]: 2(18.2)
- patients with TDM < 10 mg/L Withdraw ≤ 7d, N (%) [17]: 9(81.8)
- patients with TDM > 20 mg/L Withdraw ≤ 7d, N (%) [17]: 0
- patients with TDM 10–20 mg/L Withdraw ≤ 7d, N (%) [18]: 2(22.2)
- patients with TDM < 10 mg/L Withdraw ≤ 7d, N (%) [18]: 6(66.7)
- patients with TDM > 20 mg/L Withdraw ≤ 7d, N (%) [18]: 1(11.1)
- patients having concentrations of 10–20 mg/L, TDMw≤7d (≤ 7 days after last dose, all patients, 33 patients): 28.0%
- patients having concentrations exceeding 20 mg/L, TDMw≤7d (≤ 7 days after last dose, all patients, seven patients): 5.9%
- patients in whom the target concentration (≥ 10 mg/L) was achieved after withdrawal (≤ 7 days after withdrawal, all patients): 33.9%
- TDM Withdraw ≥ 15d (teicoplanin concentration) [1]: 4.54[0,7.3] mg/L
- TDM Withdraw ≥ 15d (teicoplanin concentration) [2]: 4.1[0,7.0] mg/L
- TDM Withdraw ≥ 15d (teicoplanin concentration) [3]: 0[0,0] mg/L
- TDM Withdraw ≥ 15d (teicoplanin concentration) [8]: 2.1[0,2.8] mg/L
- TDM Withdraw ≥ 15d (teicoplanin concentration) (all patients (N = 204)): 3.5[0,6.4] mg/L
- patients with TDM 10–20 mg/L Withdraw ≥ 15d, N (%) (LR-A + MR-A): 1(2.4)
- patients with TDM < 10 mg/L Withdraw ≥ 15d, N (%) (LR-A + MR-A): 41(97.6)
- patients with TDM > 20 mg/L Withdraw ≥ 15d, N (%) (LR-A + MR-A): 0
- patients with TDM 10–20 mg/L Withdraw ≥ 15d, N (%) (LR-B + MR-A): 4(10.5)
- patients with TDM < 10 mg/L Withdraw ≥ 15d, N (%) (LR-B + MR-A): 34(89.5)
- patients with TDM > 20 mg/L Withdraw ≥ 15d, N (%) (LR-B + MR-A): 0
- patients with TDM 10–20 mg/L Withdraw ≥ 15d, N (%) (LR-C + MR-B): 0
- patients with TDM < 10 mg/L Withdraw ≥ 15d, N (%) (LR-C + MR-B): 5(100)
- patients with TDM > 20 mg/L Withdraw ≥ 15d, N (%) (LR-C + MR-B): 0
- patients with TDM 10–20 mg/L Withdraw ≥ 15d, N (%) (LR-C + MR-C): 0
- patients with TDM < 10 mg/L Withdraw ≥ 15d, N (%) (LR-C + MR-C): 5(100)
- patients with TDM > 20 mg/L Withdraw ≥ 15d, N (%) (LR-C + MR-C): 0
- patients in whom the target concentration (≥ 10 mg/L) was achieved after withdrawal (≥ 15 days after withdrawal, all patients): 5.5%
- patients in whom teicoplanin remained detectable (≥ 15 days after withdrawal, lower limit of quantification 1.0 mg/L): two-thirds
